Test results reported in ChEMBL document CHEMBL5120938, “Development of BET Inhibitors as Potential Treatments for Cancer: Optimization of Pharmacokinetic Properties” (ACS Med Chem Lett, 2022).

Tests used:
[1] = molecular target: Bromodomain-containing protein 4 (Homo sapiens, UniProt O60885); experiment: Inhibition of N-terminal His6-tagged recombinant human BRD4 (44 to 168 residues) expressed in Escherichia coli BL21 (DE3) incubated for 60 mins by TR-FRET assay
[2] = Inhibition of c-MYC expression in human JJN-3R cells measured after 4 hrs; format: functional, cell-based
[3] = Antiproliferative activity against human JJN-3R cells assessed as inhibition of cell proliferation measured after 72 hrs by MTS assay; format: functional, cell-based
[4] = Metabolic stability in alamethicin treated human liver microsomes assessed as half life pretreated for 5 mins followed by NADPH addition and measured up to 45 mins by LC-MS/MS analysis; format: ADME, Microsome; conditions: time < 50 min
[5] = Metabolic stability in alamethicin treated Sprague-Dawley rat liver microsomes assessed as half life pretreated for 5 mins followed by NADPH addition and measured up to 45 mins by LC-MS/MS analysis; format: ADME, Microsome; conditions: time < 50 min
[6] = Metabolic stability in alamethicin treated CD-1 mouse liver microsomes assessed as half life pretreated for 5 mins followed by NADPH addition and measured up to 45 mins by LC-MS/MS analysis; format: ADME, Microsome; conditions: time < 50 min
[7] = Metabolic stability in alamethicin treated Beagle dog liver microsomes assessed as half life pretreated for 5 mins followed by NADPH addition and measured up to 45 mins by LC-MS/MS analysis; format: ADME, Canis lupus familiaris, Microsome; conditions: time < 50 min
[8] = Metabolic stability in alamethicin treated cynomologus monkey liver microsomes assessed as half life pretreated for 5 mins followed by NADPH addition and measured up to 45 mins by LC-MS/MS analysis; format: ADME, Macaca fascicularis, Microsome; conditions: cynomolgus monkey, time < 50 min
[9] = Metabolic stability in alamethicin treated human liver microsomes assessed as half life pretreated for 5 mins followed by UDPGA addition and measured up to 45 mins by LC-MS/MS analysis; format: ADME, Microsome; conditions: time < 50 min
[10] = Metabolic stability in alamethicin treated Sprague-Dawley rat liver microsomes assessed as half life pretreated for 5 mins followed by UDPGA addition and measured up to 45 mins by LC-MS/MS analysis; format: ADME, Microsome; conditions: time < 50 min
[11] = Metabolic stability in alamethicin treated CD-1 mouse liver microsomes assessed as half life pretreated for 5 mins followed by UDPGA addition and measured up to 45 mins by LC-MS/MS analysis; format: ADME, Microsome; conditions: time < 50 min
[12] = Metabolic stability in alamethicin treated Beagle dog liver microsomes assessed as half life pretreated for 5 mins followed by UDPGA addition and measured up to 45 mins by LC-MS/MS analysis; format: ADME, Canis lupus familiaris, Microsome; conditions: Beagle, liver microsomes, time < 50 min
[13] = Metabolic stability in alamethicin treated cynomologus monkey liver microsomes assessed as half life pretreated for 5 mins followed by UDPGA addition and measured up to 45 mins by LC-MS/MS analysis; format: ADME, Macaca fascicularis, Microsome; conditions: cynomolgus monkey, time < 50 min
[14] = Efflux ratio of apparent permeability across […] in human Caco-2 cells after 2 hrs by liquid scintillation counting analysis; format: ADME, cell-based; conditions: caco-2, 2 h

SMILES | IC50 [1] [nM] | IC50 [2] [nM] | IC50 [3] [nM] | half-life [4] [min] | half-life [5] [min] | half-life [6] [min] | half-life [7] [min] | half-life [8] [min] | half-life [9] [min] | half-life [10] [min] | half-life [11] [min] | half-life [12] [min] | half-life [13] [min] | Ratio [14]
[2H]C([2H])([2H])c1nnn(C)c1-c1cnc2c3ccc(C(C)(C)O)c(F)c3n([C@H](c3ccccc3)C3CCOCC3)c2c1 | 1 | 1.5 | 5 | 67 | 38 | 42 | 69 | 29 | 120 | 6 | 120 | 120 | 120 | 1.4
[2H]C([2H])([2H])c1nnn(C)c1-c1cnc2c3cc(Cl)c(C(C)(C)O)cc3n([C@H](c3ccccc3)C3CCOCC3)c2c1 | 2.2 | 2 | 3 | 38 | 39 | 34 | 33 | 45 | 110 | 120 | 120 | 120 | 120 | 1.4
[2H]C([2H])([2H])c1nnn(C)c1-c1cnc2c3c(OC)cc(C(C)(C)O)cc3n([C@H](c3ccccc3)C3CCOCC3)c2c1 | 1 | 1 | 5 | 23 | 35 | 28 | 73 | 11 | 98 | 120 | 120 | 120 | 120 | > 35
Cc1nnn(C)c1-c1cnc2c3ccc(S(C)(=O)=O)cc3n([C@H](c3ccccc3)C3CCOCC3)c2c1 | 0.9 | 1.2 | 5 | 41 | 44 | 10 | 11 | 12 | – | – | – | – | – | 7.3
[2H]C([2H])([2H])c1nnn(C)c1-c1cnc2c3ccc(S(C)(=O)=O)cc3n([C@H](c3ccccc3)C3CCOCC3)c2c1 | 1.7 | 2 | 13 | 75 | 47 | 22 | 34 | 40 | – | – | – | – | – | 4.5
COC(C)(C)c1ccc2c3ncc(-c4c(C)nnn4C)cc3n([C@H](c3ccccc3)C3CCOCC3)c2c1 | 1.4 | 3 | 7 | 3 | 18 | 7 | – | – | – | – | – | – | – | –
COc1cc2c3ncc(-c4c(C)nnn4C)cc3n([C@H](c3ccccc3)C3CCOCC3)c2cc1C(C)(C)O | 0.8 | 1 | 4 | 9 | 13 | 5 | 9 | 1 | – | – | 120 | – | – | 1.3
